Test results taken from patent US7186534B1 (The Trustees of Columbia University in the City of New York, priority 1997, dated 2007).
“Also recorded” adds a separate entry of the source. Read-outs that look alike come from different tables or passages of the source.

Tests used:
[1] = biological target: T1, human 9-cis retinol dehydrogenase (9cRDH) (Homo sapiens, UniProt Q92781); assay: Inhibition of recombinant human 9cRDH activity (9-cis-retinol oxidation, CHO cell homogenate, HPLC); type: biochemical; settings: for IC50 / inhibition of human 9cRDH activity (in words): 10 μM 9-cis-retinol; for IC50: 15 min, 37° C., CHO cell homogenate, read-out: Estimated inhibitor concentration resulting in 50% inhibition of human 9-cis retinol dehydrogenase activity (ID50)
T1 sequence (Q92781 1-318): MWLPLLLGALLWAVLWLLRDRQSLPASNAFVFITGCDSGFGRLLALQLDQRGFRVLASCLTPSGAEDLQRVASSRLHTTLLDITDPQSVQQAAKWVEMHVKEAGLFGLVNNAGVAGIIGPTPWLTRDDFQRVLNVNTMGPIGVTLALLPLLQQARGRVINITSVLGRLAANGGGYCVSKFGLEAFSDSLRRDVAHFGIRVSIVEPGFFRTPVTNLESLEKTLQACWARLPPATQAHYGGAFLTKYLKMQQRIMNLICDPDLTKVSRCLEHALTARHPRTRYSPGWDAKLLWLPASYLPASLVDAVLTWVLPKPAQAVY

[2] = biological target: T2, mouse 9cRDH (Mus musculus, UniProt O55240); assay: Inhibition of recombinant mouse 9cRDH activity (9-cis-retinol oxidation, CHO cell homogenate, HPLC); type: biochemical; settings: for inhibition of mouse 9cRDH activity (in words): 10 μM 9-cis-retinol
T2 sequence (O55240 1-318): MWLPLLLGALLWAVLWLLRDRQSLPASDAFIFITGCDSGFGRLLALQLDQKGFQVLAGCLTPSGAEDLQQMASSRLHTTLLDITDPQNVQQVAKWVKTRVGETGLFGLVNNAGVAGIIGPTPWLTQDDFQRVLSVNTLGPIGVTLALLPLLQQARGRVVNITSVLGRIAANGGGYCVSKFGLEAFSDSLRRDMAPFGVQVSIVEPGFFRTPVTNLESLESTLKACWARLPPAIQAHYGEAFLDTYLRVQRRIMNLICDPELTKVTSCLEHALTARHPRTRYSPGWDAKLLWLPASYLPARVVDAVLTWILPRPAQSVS

[3] = 10 μM steroid, equimolar to substrate, forward (retinol oxidation) or reverse (retinaldehyde reduction) direction
[4] = NaCl up to 1 M, β-mercaptoethanol, dithiothreitol 1 mM, Triton X-100, sodium cholate 1% (w/v)
[5] = […] 15 μM, carbenoxolone 0.5 mM, all others 1 mM
[6] = phenylarsine oxide 15 μM, carbenoxolone 0.5 mM, all others 1 mM

CC(=O)[C@H]1CC[C@H]2[C@@H]3CCC4=CC(=O)CC[C@]4(C)[C@H]3CC[C@]12C [progesterone]
inhibition of human 9cRDH activity by hydroxysteroids [1, 3]: none of these hydroxysteroids inhibited
inhibition of mouse 9cRDH activity by hydroxysteroids [2, 3]: none of these hydroxysteroids inhibited

CCCCCCCCCCCCCCCC(=O)O [Palmitic Acid, palmitic acid]
IC50 [1]: > 100 µM
inhibition of human 9cRDH activity (in words) ([1]; listed as Palmitic acid): not an inhibitor
inhibition of human 9cRDH activity (in words) ([1]; listed as palmitic acid): not inhibitory; also recorded: only very weak inhibitors
inhibition of mouse 9cRDH activity (in words) [2]: only very weak inhibitors

O=C(O)CN(CCN(CC(=O)O)CC(=O)O)CC(=O)O [EDTA]
effect on 9cRDH activity expressed in CHO cells (first series) [1, 4]: not inhibited

CC(C)=CCCC(C)=CC=O [citral]
influence of SCAD/alcohol dehydrogenase inhibiting reagents on recombinant human 9cRDH activity [1, 5]: none of these compounds influenced
influence of SCAD/alcohol dehydrogenase inhibiting reagents on recombinant mouse 9cRDH activity [2, 5]: none of these compounds influenced

Triton X-100
effect on 9cRDH activity expressed in CHO cells (first series) [1]: rapidly inactivated

c1cnc2c(c1)ccc1cccnc12 [o-phenanthroline, 1,10-phenanthroline]
effect on 9cRDH activity expressed in CHO cells (first series) [1, 4]: not inhibited
influence of SCAD/alcohol dehydrogenase inhibiting reagents on recombinant human 9cRDH activity [1, 6]: none of these compounds influenced
influence of SCAD/alcohol dehydrogenase inhibiting reagents on recombinant mouse 9cRDH activity [2, 6]: none of these compounds influenced

C[C@]12CC[C@@H]3c4ccc(O)cc4CC[C@H]3[C@@H]1CC[C@@H]2O [β-estradiol]
inhibition of human 9cRDH activity by hydroxysteroids [1, 3]: none of these hydroxysteroids inhibited
inhibition of mouse 9cRDH activity by hydroxysteroids [2, 3]: none of these hydroxysteroids inhibited

C[C@]12CCC(=O)C=C1CC[C@@H]1[C@@H]2CC[C@]2(C)C(=O)CC[C@@H]12 [4-androstene-3,17dione]
inhibition of human 9cRDH activity by hydroxysteroids [1, 3]: none of these hydroxysteroids inhibited
inhibition of mouse 9cRDH activity by hydroxysteroids [2, 3]: none of these hydroxysteroids inhibited

C[C@]12CCC(=O)C=C1CC[C@@H]1[C@@H]2C(=O)C[C@@]2(C)[C@H]1CC[C@]2(O)C(=O)CO [cortisone]
inhibition of human 9cRDH activity by hydroxysteroids [1, 3]: none of these hydroxysteroids inhibited
inhibition of mouse 9cRDH activity by hydroxysteroids [2, 3]: none of these hydroxysteroids inhibited

CC1(C)[C@@H](OC(=O)CCC(=O)O)CC[C@]2(C)[C@H]3C(=O)C=C4[C@@H]5C[C@@](C)(C(=O)O)CC[C@]5(C)CC[C@@]4(C)[C@]3(C)CC[C@@H]12 [carbenoxolone]
influence of SCAD/alcohol dehydrogenase inhibiting reagents on recombinant human 9cRDH activity [1, 6]: none of these compounds influenced
influence of SCAD/alcohol dehydrogenase inhibiting reagents on recombinant mouse 9cRDH activity [2, 6]: none of these compounds influenced

C[C@]12CCC(=O)C[C@@H]1CC[C@@H]1[C@@H]2CC[C@]2(C)C(=O)CC[C@@H]12 [5α-androstane-3,17dione]
inhibition of human 9cRDH activity by hydroxysteroids [1]: none of these hydroxysteroids inhibited
inhibition of mouse 9cRDH activity by hydroxysteroids [2]: none of these hydroxysteroids inhibited

CCO [ethanol]
inhibition of human 9cRDH activity (in words) [1]: not inhibited
effect on 9cRDH activity expressed in CHO cells (first series) [1, 4]: not inhibited
inhibition of mouse 9cRDH activity (in words) [2]: not inhibited

C[C@]12C[C@H](O)[C@H]3[C@@H](CCC4=CC(=O)CC[C@@]43C)[C@@H]1CC[C@@H]2C(=O)CO [corticosterone]
inhibition of human 9cRDH activity by hydroxysteroids [1, 3]: none of these hydroxysteroids inhibited
inhibition of mouse 9cRDH activity by hydroxysteroids [2, 3]: none of these hydroxysteroids inhibited

C[C@]12C=CC(=O)C=C1CC[C@@H]1[C@@H]2C(=O)C[C@@]2(C)[C@H]1CC[C@]2(O)C(=O)CO [prednisone]
inhibition of human 9cRDH activity by hydroxysteroids [1, 3]: none of these hydroxysteroids inhibited
inhibition of mouse 9cRDH activity by hydroxysteroids [2, 3]: none of these hydroxysteroids inhibited

CC(=O)[O-].CC(=O)[O-].[Zn+2] [zinc acetate]
influence of SCAD/alcohol dehydrogenase inhibiting reagents on recombinant human 9cRDH activity [1]: none of these compounds influenced
influence of SCAD/alcohol dehydrogenase inhibiting reagents on recombinant mouse 9cRDH activity [2]: none of these compounds influenced

Cc1cn[nH]c1 [4-methylpyrazole]
influence of SCAD/alcohol dehydrogenase inhibiting reagents on recombinant human 9cRDH activity [1, 6]: none of these compounds influenced
influence of SCAD/alcohol dehydrogenase inhibiting reagents on recombinant mouse 9cRDH activity [2, 6]: none of these compounds influenced

CCCCCCCC/C=C\CCCCCCCCO [Oleyl Alcohol, oleyl alcohol]
inhibition of human 9cRDH activity (in words) [1]: did not inhibit; also recorded: only very weak inhibitors; also recorded: not an inhibitor
IC50 [1]: > 100 µM
inhibition of mouse 9cRDH activity (in words) [2]: only very weak inhibitors

C[C@H](CCC(=O)[O-])[C@H]1CC[C@H]2[C@@H]3[C@H](O)C[C@@H]4C[C@H](O)CC[C@]4(C)[C@H]3C[C@H](O)[C@]12C.[Na+] [sodium cholate]
effect on 9cRDH activity expressed in CHO cells (first series) [1]: rapidly inactivated

C[C@]12CCC(=O)C=C1CC[C@@H]1[C@@H]2[C@@H](O)C[C@@]2(C)[C@H]1CC[C@]2(O)C(=O)CO [hydrocortisone]
inhibition of human 9cRDH activity by hydroxysteroids [1, 3]: none of these hydroxysteroids inhibited
inhibition of mouse 9cRDH activity by hydroxysteroids [2, 3]: none of these hydroxysteroids inhibited

C[C@]12CC[C@H](O)C[C@@H]1CC[C@@H]1[C@@H]2CC[C@]2(C)[C@@H](O)CC[C@@H]12 [5α-androstane-3β, 17βdiol]
inhibition of human 9cRDH activity by hydroxysteroids [1, 3]: none of these hydroxysteroids inhibited
inhibition of mouse 9cRDH activity by hydroxysteroids [2, 3]: none of these hydroxysteroids inhibited

CCCCCCCC/C=C\CCCCCCCC(=O)O [Oleic Acid, oleic acid]
times (fold) less potent than 13-cis retinoic acid as inhibitor of 9cRDH [1]: approximately 100
inhibition of human 9cRDH activity (in words) [1]: mild inhibitor; also recorded: only very weak inhibitors; also recorded: weakly inhibited
IC50 [1]: 15 µM
inhibition of mouse 9cRDH activity (in words) [2]: only very weak inhibitors

CCN(CC)C(=S)SSC(=S)N(CC)CC [disulfuran]
influence of SCAD/alcohol dehydrogenase inhibiting reagents on recombinant human 9cRDH activity [1, 5]: none of these compounds influenced
influence of SCAD/alcohol dehydrogenase inhibiting reagents on recombinant mouse 9cRDH activity [2, 5]: none of these compounds influenced

CCCCCCCCCCC/C=C\CCCCCO [Petroselinyl Alcohol, petroselinyl alcohol]
inhibition of human 9cRDH activity (in words) [1]: did not inhibit; also recorded: not an inhibitor
IC50 [1]: > 100 µM
inhibition of human 9cRDH activity (in words) ([1]; listed as petrosenlinyl alcohol): only very weak inhibitors
inhibition of mouse 9cRDH activity (in words) [2]: only very weak inhibitors
